Experiments:
[1] = test system: DU-145; format: cell-based; conditions: Prostate cancer; 10^−5 molar; 48 hours; SRB
[2] = test system: SK-OV-3; format: cell-based; conditions: Ovarian cancer; 10^−5 molar; 48 hours; SRB
[3] = test system: HS 578T; format: cell-based; conditions: Breast cancer; 10^−5 molar; 48 hours; SRB
[4] = test system: HCT-116; format: cell-based; conditions: Colon cancer; 10^−5 molar; 48 hours; SRB
[5] = test system: SF-539; format: cell-based; conditions: CNS cancer; 10^−5 molar; 48 hours; SRB
[6] = test system: CAKI-1; format: cell-based; conditions: Renal cancer; 10^−5 molar; 48 hours; SRB
[7] = test system: T-47D; format: cell-based; conditions: Breast cancer; 10^−5 molar; 48 hours; SRB
[8] = test system: RPMI-8226; format: cell-based; conditions: Leukemia; 10^−5 molar; 48 hours; SRB
[9] = test system: PC-3; format: cell-based; conditions: Prostate cancer; 10^−5 molar; 48 hours; SRB
[10] = test system: CCRF-CEM; format: cell-based; conditions: Leukemia; 10^−5 molar; 48 hours; SRB
[11] = test system: TK-10; format: cell-based; conditions: Renal cancer; 10^−5 molar; 48 hours; SRB
[12] = test system: SF-295; format: cell-based; conditions: CNS cancer; 10^−5 molar; 48 hours; SRB
[13] = test system: IGROV1; format: cell-based; conditions: Ovarian cancer; 10^−5 molar; 48 hours; SRB
[14] = test system: MOLT-4; format: cell-based; conditions: Leukemia; 10^−5 molar; 48 hours; SRB
[15] = test system: NCI-H226; format: cell-based; conditions: Non-small cell lung cancer; 10^−5 molar; 48 hours; SRB
[16] = test system: NCI-H23; format: cell-based; conditions: Non-small cell lung cancer; 10^−5 molar; 48 hours; SRB
[17] = test system: SR; format: cell-based; conditions: Leukemia; 10^−5 molar; 48 hours; SRB
[18] = test system: NCI-H522; format: cell-based; conditions: Non-small cell lung cancer; 10^−5 molar; 48 hours; SRB
[19] = test system: COLO 205; format: cell-based; conditions: Colon cancer; 10^−5 molar; 48 hours; SRB
[20] = test system: UO-31; format: cell-based; conditions: Renal cancer; 10^−5 molar; 48 hours; SRB
[21] = test system: SK-MEL-2; format: cell-based; conditions: Melanoma; 10^−5 molar; 48 hours; SRB
[22] = test system: HOP-92; format: cell-based; conditions: Non-small cell lung cancer; 10^−5 molar; 48 hours; SRB
[23] = test system: NCI-H460; format: cell-based; conditions: Non-small cell lung cancer; 10^−5 molar; 48 hours; SRB
[24] = test system: OVCAR-4; format: cell-based; conditions: Ovarian cancer; 10^−5 molar; 48 hours; SRB
[25] = test system: MCF7; format: cell-based; conditions: Breast cancer; 10^−5 molar; 48 hours; SRB
[26] = test system: RXF 393; format: cell-based; conditions: Renal cancer; 10^−5 molar; 48 hours; SRB
[27] = test system: LOX IMVI; format: cell-based; conditions: Melanoma; 10^−5 molar; 48 hours; SRB
[28] = test system: HCC-2998; format: cell-based; conditions: Colon cancer; 10^−5 molar; 48 hours; SRB
[29] = test system: SN12C; format: cell-based; conditions: Renal cancer; 10^−5 molar; 48 hours; SRB
[30] = test system: SF-268; format: cell-based; conditions: CNS cancer; 10^−5 molar; 48 hours; SRB
[31] = test system: HT29; format: cell-based; conditions: Colon cancer; 10^−5 molar; 48 hours; SRB
[32] = test system: OVCAR-5; format: cell-based; conditions: Ovarian cancer; 10^−5 molar; 48 hours; SRB
[33] = test system: KM12; test: cells; format: cell-based; conditions: Colon cancer; 10^−5 molar; 48 hours; SRB
[34] = test system: HCT-15; format: cell-based; conditions: Colon cancer; 10^−5 molar; 48 hours; SRB
[35] = test system: A549/ATCC; format: cell-based; conditions: Non-small cell lung cancer; 10^−5 molar; 48 hours; SRB
[36] = test system: K-562; format: cell-based; conditions: Leukemia; 10^−5 molar; 48 hours; SRB
[37] = test system: 786-0; format: cell-based; conditions: Renal cancer; 10^−5 molar; 48 hours; SRB
[38] = test system: SK-MEL-5; format: cell-based; conditions: Melanoma; 10^−5 molar; 48 hours; SRB
[39] = test system: 60 cancer cell lines; test: NCI 60-cell screen, SRB, whole panel (mean, delta, range); format: cell-based; conditions: 10^−5 molar, 48 hours, SRB
[40] = test system: UACC-62; format: cell-based; conditions: Melanoma; 10^−5 molar; 48 hours; SRB
[41] = test system: SW-620; format: cell-based; conditions: Colon cancer; 10^−5 molar; 48 hours; SRB
[42] = test system: U251; format: cell-based; conditions: CNS cancer; 10^−5 molar; 48 hours; SRB
[43] = test system: BT-549; format: cell-based; conditions: Breast cancer; 10^−5 molar; 48 hours; SRB
[44] = test system: A498; format: cell-based; conditions: Renal cancer; 10^−5 molar; 48 hours; SRB
[45] = test system: SK-MEL-28; format: cell-based; conditions: Melanoma; 10^−5 molar; 48 hours; SRB
[46] = test system: MDA-MB-486; format: cell-based; conditions: Breast cancer; 10^−5 molar; 48 hours; SRB
[47] = test system: ACHN; format: cell-based; conditions: Renal cancer; 10^−5 molar; 48 hours; SRB
[48] = test system: UACC-257; format: cell-based; conditions: Melanoma; 10^−5 molar; 48 hours; SRB
[49] = test system: MDA-MB-435; format: cell-based; conditions: Melanoma; 10^−5 molar; 48 hours; SRB
[50] = test system: SNB-19; format: cell-based; conditions: CNS cancer; 10^−5 molar; 48 hours; SRB
[51] = test system: SNB-75; format: cell-based; conditions: CNS cancer; 10^−5 molar; 48 hours; SRB
[52] = test system: NCI/ADR-RES; format: cell-based; conditions: Ovarian cancer; 10^−5 molar; 48 hours; SRB
[53] = test system: M14; format: cell-based; conditions: Melanoma; 10^−5 molar; 48 hours; SRB
[54] = test system: OVCAR-8; format: cell-based; conditions: Ovarian cancer; 10^−5 molar; 48 hours; SRB
[55] = test system: HOP-62; format: cell-based; conditions: Non-small cell lung cancer; 10^−5 molar; 48 hours; SRB
[56] = test system: MALME-3M; format: cell-based; conditions: Melanoma; 10^−5 molar; 48 hours; SRB
[57] = test system: HL-60(TB); format: cell-based; conditions: Leukemia; 10^−5 molar; 48 hours; SRB
[58] = test system: MDA-MB-231/ATCC; format: cell-based; conditions: Breast cancer; 10^−5 molar; 48 hours; SRB

## CCC(CC)Nc1nc2ccccc2c2c(=O)c3cc(Cl)ccc3sc12 [Compound N6, 10-Chloro-6-(pentan-3-ylamino)-12H-thiochromeno[2,3-c]quinolin-12-one]
[1]
  Growth percent DU-145: 109.54%
[2]
  Growth percent SK-OV-3: 99.71%
[3]
  Growth percent HS 578T: 89.81%
[4]
  Growth percent HCT-116: 99.01%
[5]
  Growth percent SF-539: 95.09%
[6]
  Growth percent CAKI-1: 73.26%
[7]
  Growth percent T-47D: 73.62%
[8]
  Growth percent RPMI-8226: 108.60%
[9]
  Growth percent PC-3: 84.63%
[10]
  Growth percent CCRF-CEM: 93.72%
[11]
  Growth percent TK-10: 138.89%
[12]
  Growth percent SF-295: 104.18%
[13]
  Growth percent IGROV1: 80.40%
[14]
  Growth percent MOLT-4: 103.08%
[15]
  Growth percent NCI-H226: 79.22%
[16]
  Growth percent NCI-H23: 94.17%
[17]
  Growth percent SR: 104.59%
[18]
  Growth percent NCI-H522: 99.02%
[19]
  Growth percent COLO 205: 107.68%
[20]
  Growth percent UO-31: 78.57%
[21]
  Growth percent SK-MEL-2: 104.97%
[22]
  Growth percent HOP-92: 83.26%
[23]
  Growth percent NCI-H460: 99.42%
[24]
  Growth percent OVCAR-4: 98.77%
[25]
  Growth percent MCF7 (Table 2: MCF): 67.12%
other
  melting point: 160 to 161 °C
[26]
  Growth percent RXF 393: 93.23%
[27]
  Growth percent LOX IMVI: 89.35%
[28]
  Growth percent HCC-2998: 119.79%
[29]
  Growth percent SN12C: 94.28%
[30]
  Growth percent SF-268: 102.86%
[31]
  Growth percent HT29: 116.70%
[32]
  Growth percent OVCAR-5: 99.96%
[33]
  Growth percent KM12: 94.04%
[34]
  Growth percent HCT-15: 95.35%
[35]
  Growth percent A549/ATCC: 91.04%
[36]
  Growth percent K-562: 95.25%
[37]
  Growth percent 786-0: 108.84%
[38]
  Growth percent SK-MEL-5: 90.08%
[39]; delta over the cell panel
  Growth percent, Delta: 29.82%
[39]; mean over the cell panel
  Growth percent, Mean: 96.94%
[39]; range over the cell panel
  Growth percent, Range: 74.81%
[40]
  Growth percent UACC-62: 83.74%
[41]
  Growth percent SW-620: 104.94%
[42]
  Growth percent U251: 97.05%
[43]
  Growth percent BT-549: 109.76%
[44]
  Growth percent A498: 103.44%
[45]
  Growth percent SK-MEL-28: 98.40%
[46]
  Growth percent MDA-MB-486: 95.79%
[47]
  Growth percent ACHN: 84.92%
[48]
  Growth percent UACC-257: 99.44%
[49]
  Growth percent MDA-MB-435: 108.13%
[50]
  Growth percent SNB-19: 99.01%
[51]
  Growth percent SNB-75: 73.24%
[52]
  Growth percent NCI/ADR-RES: 101.32%
[53]
  Growth percent M14: 107.34%
[54]
  Growth percent OVCAR-8: 95.31%
[55]
  Growth percent HOP-62: 95.32%
[56]
  Growth percent MALME-3M: 92.36%
[57]
  Growth percent HL-60(TB): 141.93%
[58]
  Growth percent MDA-MB-231/ATCC: 77.83%
